Results reported in paper PMC5924617 (European journal of medicinal chemistry, 2018).

Experiments:
[1] = In vivo pharmacokinetic profile in rats; details: PO 20 mg/kg
[2] = test system: innate immune genes including ISG54, ISG56, IL-8 and Groβ; assay: poly; format: cell-based, human; details: for IC50: Homo sapiens, read-out: IC50 against all innate immune genes (range); for Inhibitory rates on immune genes' expression (all genes, text): 10 μM compound, ISG54, ISG56, IL-8, Groβ in hSAECs
[3] = Daily administration over one month in mice, toxicity; details: compound-treated mice
[4] = test system: various receptors and enzymes including kinases such as IKK; assay: Eurofins Cerep panel assays, off-target effects; details: tested concentration 10 μM; Table S1
Groβ = assay: poly; format: cell-based, human; details: for Inhibitory rate (%) of Groβ expression: 10 μM compound, poly(I:C)-induced, hSAECs; for inhibition at 10 µM: Homo sapiens, read-out: Inhibitory rate (%) of Groβ expression
ISG56 = assay: poly; format: cell-based, human; details: for Inhibitory rate (%) of ISG56 expression: 10 μM compound, poly(I:C)-induced, hSAECs; for inhibition at 10 µM: Homo sapiens, read-out: Inhibitory rate (%) of ISG56 expression
IL-8 = assay: poly; format: cell-based, human; details: for inhibition at 10 µM: Homo sapiens, read-out: Inhibitory rate (%) of IL-8 expression
ISG54 = assay: poly; format: cell-based, human
[5] = 10 μM compound, poly(I:C)-induced, hSAECs

Cc1cc(/N=N/c2ccc(S(=O)(=O)NC3CCCC3)cc2)c(N)cc1O [Compound 35, (E)-4-((2-Amino-4-hydroxy-5-methylphenyl)diazenyl)-N-cyclopentylbenzenesulfonamide]
Oral bioavailability [1]: not favorable
IC50 [2]: 490 to 860 nM
Effects on hepatic, renal or pulmonary tissues, histological examination [3]: No discernable effects
Off-target effects [4]: No significant off-target effects

5-Chloro-2-methoxy-N-(2-oxo-1,2,3,4-tetrahydroquinolin-6-yl)benzenesulfonamide [Compound 26]
Inhibitory rate (%) of Groβ expression (Groβ): 56%
Inhibitory rate (%) of ISG56 expression (ISG56): 56%

Cc1sc2c(c1C)C(c1ccc(Cl)cc1)=N[C@@H](CC(=O)OC(C)(C)C)c1nnc(C)n1-2 [(+)-JQ1, reference compound]
IC50 [2]: 1380 to 3850 nM

CCCc1cc(C(=O)Nc2ccc(S(=O)(=O)N3CCC[C@H]3C(=O)OC)cc2)no1 [Compound 11, Methyl ((4-(5-propylisoxazole-3-carboxamido)phenyl)sulfonyl)-L-prolinate]
inhibition at 10 µM (Groβ): -57%
inhibition at 10 µM (ISG56): -73%
inhibition at 10 µM (IL-8): -61%
inhibition at 10 µM (ISG54; Homo sapiens, read-out: Inhibitory rate (%) of ISG54 expression): -62%

COC(=O)[C@@H]1CCCN1S(=O)(=O)c1ccc(N(C(=O)c2ccc(F)cc2)C(=O)c2ccc(F)cc2)cc1 [Compound 13, Methyl ((4-(4-fluoro-N-(4-fluorobenzoyl)benzamido)phenyl)sulfonyl)-L-prolinate]
Inhibitory rates on immune genes' expression (all genes, text) [2]: around 90%

Methyl ((4-(5-(furan-3-yl)isoxazole-3-carboxamido)phenyl)sulfonyl)-L-prolinate [Compound 12]
Inhibitory rate (%) of Groβ expression (Groβ): −98%
Inhibitory rate (%) of ISG56 expression (ISG56): −93%
Inhibitory rate (%) of IL-8 expression (IL-8; [5]): −86%
Inhibitory rate (%) of ISG54 expression (ISG54; [5]): −114%

O=C1CCc2cc(NS(=O)(=O)c3ccc([N+](=O)[O-])cc3)ccc2N1 [Compound 27, 4-Nitro-N-(2-oxo-1,2,3,4-tetrahydroquinolin-6-yl)benzenesulfonamide]
inhibition at 10 µM (IL-8): -32%

COC(=O)[C@@H]1CCCN1S(=O)(=O)c1ccc(NCc2ccc(O)cc2)cc1 [Compound 15, Methyl ((4-((4-hydroxybenzyl)amino)phenyl)sulfonyl)-L-prolinate]
inhibition at 10 µM (Groβ): -12%
inhibition at 10 µM (ISG56): -17%

Cc1cc(/N=N/c2ccc3c(c2)CCC(=O)N3)c(N)cc1O [Compound 28, (E)-6-((2-Amino-4-hydroxy-5-methylphenyl)diazenyl)-3,4-dihydroquinolin-2(1H)-one]
Oral bioavailability [1]: not favorable
IC50 [2]: 490 to 860 nM

COC(=O)[C@@H]1CCCN1S(=O)(=O)c1ccc(NC(=O)c2ccc(C(F)(F)F)cc2)cc1 [Compound 14, Methyl ((4-(4-(trifluoromethyl)benzamido)phenyl)sulfonyl)-L-prolinate]
Inhibitory rates on immune genes' expression (all genes, text) [2]: completely lost its activity

Cc1cc(/N=N/c2ccc(N3CCS(=O)(=O)CC3)cc2)c(N)cc1O [Compound 33, (E)-4-(4-((2-Amino-4-hydroxy-5-methylphenyl)diazenyl)phenyl)thiomorpholine 1,1-dioxide]
Inhibitory rates on immune genes' expression (all genes, text) [2]: inactive
